Results taken from US12257287B2, “Glucagon-derived peptide and use thereof” (Tianjin Institute of Pharmaceutical Research Co., Ltd., priority 2018, dated 2025).
Numbered stars: 1 amine (or outer) side, 2 acyl side, 3 side chain; on linkers, the order of the positions; unused ones are H or OH. Square brackets hold non-standard residues; d marks the D form. Side chains are listed from the residue outwards. Peptide text beside a SMILES is read from it. * marks the point of attachment. C18 diacid = O=C(O)CCCCCCCCCCCCCCCCC(=O)*; γGlu = O=C(O)[C@H](CCC(=O)[*:2])N[*:1]; AEEA = NCCOCCOCC(=O)O; Aib = CC(C)(N)C(=O)O

Tests used:
GC receptor = molecular target: T1, GC receptor (Homo sapiens, UniProt P47871); assay: GC receptor mediated cAMP production in vitro (HEK293 cells transfected with GC receptor); assay type: cell-based; settings: 20 min at 37° C., read-out: GCGR (nM EC50)
T1 construct: expressed in transfected cells; host or cells: HEK293 cells
T1 sequence (P47871 26-477): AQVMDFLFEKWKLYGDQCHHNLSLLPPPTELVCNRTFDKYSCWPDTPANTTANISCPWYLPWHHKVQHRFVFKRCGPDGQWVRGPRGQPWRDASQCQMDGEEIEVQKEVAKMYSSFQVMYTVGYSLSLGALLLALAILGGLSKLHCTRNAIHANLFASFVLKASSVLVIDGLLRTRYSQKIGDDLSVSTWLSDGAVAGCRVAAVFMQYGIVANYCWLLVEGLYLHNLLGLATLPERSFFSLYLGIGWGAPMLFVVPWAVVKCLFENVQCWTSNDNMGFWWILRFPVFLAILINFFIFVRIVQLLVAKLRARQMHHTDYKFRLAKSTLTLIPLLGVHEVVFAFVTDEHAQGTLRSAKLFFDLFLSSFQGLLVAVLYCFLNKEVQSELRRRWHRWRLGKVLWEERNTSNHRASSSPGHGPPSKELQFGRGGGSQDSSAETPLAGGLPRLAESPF
From the text: The medium was removed, the cells were lysed, and cAMP values were detected referring to the detection method described for the assay kit.

physchem = assay type: physicochemical; settings: pH 7.5, Solubility
Procedure: 2 mg of the compound was weighed, dissolved in 1 ml of phosphate buffer solutions with different concentrations (10, 20 mM) and different pH values (7.5, 8.0), and centrifuged, and supernatant was taken. The peak area was measured by HPLC (chromatographic column: Aeris widepore XB-C18 3.6 mm, 4.6×150 mm; mobile phase: A: 0.05% TFA, B: 95% acetonitrile; detection wavelength: 214 nm) and compared with a corresponding sample standard solution, and the relative concentration of the test sample solution is calculated.
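Throughout, for Solubility: compound added at 2 mg per mL of phosphate buffer, with the dissolved amount determined in the supernatant.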

Compound	EC50 (GC receptor) [nM]	solubility (physchem; pH 7.5, 10 mM phosphate buffer) [µg/mL]	solubility (physchem; pH 7.5, 20 mM phosphate buffer) [µg/mL]
CCCCCCCCCCCCCCCC(=O)N[C@@H](CCC(=O)N[C@@H](CCC(=O)NCCCC[C@H](NC(=O)[C@H](C)NC(=O)[C@H](C)NC(=O)[C@H](CCCNC(=N)N)NC(=O)[C@H](CCC(=O)O)NC(=O)[C@H](CC(=O)O)NC(=O)[C@H](CC(C)C)NC(=O)[C@H](Cc1ccc(O)cc1)NC(=O)[C@H](CCCCN)NC(=O)[C@H](CO)NC(=O)[C@H](Cc1ccc(O)cc1)NC(=O)[C@H](CC(=O)O)NC(=O)[C@H](CO)NC(=O)[C@@H](NC(=O)[C@H](Cc1ccccc1)NC(=O)[C@@H](NC(=O)CNC(=O)[C@H](CCC(N)=O)NC(=O)C(C)(C)NC(=O)[C@@H](N)Cc1c[nH]cn1)[C@@H](C)O)[C@@H](C)O)C(=O)N[C@@H](CCC(=O)O)C(=O)N[C@@H](Cc1ccccc1)C(=O)N[C@H](C(=O)N[C@@H](C)C(=O)N[C@@H](Cc1c[nH]c2ccccc12)C(=O)N[C@@H](CC(C)C)C(=O)N[C@@H](CCC(=O)O)C(=O)N[C@@H](C)C(=O)NCC(=O)NCC(=O)N1CCC[C@H]1C(=O)N[C@@H](CO)C(=O)N[C@@H](CO)C(=O)NCC(N)=O)C(C)C)C(=O)O)C(=O)O [Compound 15] (HELM PEPTIDE1{H.[Aib].Q.G.T.F.T.S.D.Y.S.K.Y.L.D.E.R.A.A.K.E.F.V.A.W.L.E.A.G.G.P.S.S.G.[am]}|PEPTIDE2{[CCCCCCCCCCCCCCCC(=O)[*:2]].[gGlu].[gGlu]}$PEPTIDE1,PEPTIDE2,20:R3-3:R2$$$V2.0; N-terminus assumed)	0.148		
CC(C)C[C@H](NC(=O)[C@H](Cc1c[nH]c2ccccc12)NC(=O)[C@H](C)NC(=O)[C@@H](NC(=O)[C@H](Cc1ccccc1)NC(=O)[C@H](CCC(=O)O)NC(=O)[C@H](CCCCN)NC(=O)[C@H](C)NC(=O)[C@H](C)NC(=O)[C@H](CCCNC(=N)N)NC(=O)[C@H](CCC(=O)O)NC(=O)[C@H](CC(=O)O)NC(=O)[C@H](CC(C)C)NC(=O)[C@H](Cc1ccc(O)cc1)NC(=O)[C@H](CCCCN)NC(=O)[C@H](CO)NC(=O)[C@H](CCCCNC(=O)COCCOCCNC(=O)COCCOCCNC(=O)CC[C@H](NC(=O)CCCCCCCCCCCCCCCCC(=O)O)C(=O)O)NC(=O)[C@H](CC(=O)O)NC(=O)[C@H](CO)NC(=O)[C@@H](NC(=O)[C@H](Cc1ccccc1)NC(=O)[C@@H](NC(=O)CNC(=O)[C@H](CCC(N)=O)NC(=O)C(C)(C)NC(=O)[C@@H](N)Cc1c[nH]cn1)[C@@H](C)O)[C@@H](C)O)C(C)C)C(=O)N[C@@H](CCC(=O)O)C(=O)N[C@@H](C)C(=O)NCC(=O)NCC(=O)N1CCC[C@H]1C(=O)N[C@@H](CO)C(=O)N[C@@H](CO)C(=O)NCC(N)=O [Compound 24] (H-H[Aib]QGTFTSDK([AEEA-AEEA-γGlu-C18 diacid])SKYLDERAAKEFVAWLEAGGPSSG-NH2)		> 2000	> 2000
CC(C)C[C@H](NC(=O)[C@H](Cc1c[nH]c2ccccc12)NC(=O)[C@H](CCC(=O)O)NC(=O)[C@@H](NC(=O)[C@H](Cc1ccccc1)NC(=O)[C@H](CCC(=O)O)NC(=O)[C@H](CCCCNC(=O)COCCOCCNC(=O)COCCOCCNC(=O)CC[C@H](NC(=O)CCCCCCCCCCCCCCCCC(=O)O)C(=O)O)NC(=O)[C@H](C)NC(=O)[C@H](C)NC(=O)[C@H](CCCNC(=N)N)NC(=O)[C@H](CCC(=O)O)NC(=O)[C@H](CCC(=O)O)NC(=O)[C@H](CC(C)C)NC(=O)[C@H](Cc1ccc(O)cc1)NC(=O)[C@H](CCCCN)NC(=O)[C@H](CO)NC(=O)[C@H](Cc1ccc(O)cc1)NC(=O)[C@H](CC(=O)O)NC(=O)[C@H](CO)NC(=O)[C@@H](NC(=O)[C@H](Cc1ccccc1)NC(=O)[C@@H](NC(=O)CNC(=O)[C@H](CCC(N)=O)NC(=O)C(C)(C)NC(=O)[C@@H](N)Cc1c[nH]cn1)[C@@H](C)O)[C@@H](C)O)C(C)C)C(=O)N[C@@H](CCC(=O)O)C(=O)NCC(=O)NCC(=O)N1CCC[C@H]1C(=O)N[C@@H](CO)C(=O)N[C@@H](CO)C(=O)NCC(N)=O [Compound 32] (H-H[Aib]QGTFTSDYSKYLEERAAK([AEEA-AEEA-γGlu-C18 diacid])EFVEWLEGGPSSG-NH2; N-terminus assumed)	0.077		

Now from value to compound:

EC50 (GC receptor) [nM]	solubility (physchem; pH 7.5, 10 mM phosphate buffer) [µg/mL]	solubility (physchem; pH 7.5, 20 mM phosphate buffer) [µg/mL]	Compound
1.73			CCCCCCCCCCCCCCCC(=O)N[C@@H](CCC(=O)N[C@@H](CCC(=O)NCCCC[C@H](NC(=O)[C@H](CC(=O)O)NC(=O)[C@H](CO)NC(=O)[C@@H](NC(=O)[C@H](Cc1ccccc1)NC(=O)[C@@H](NC(=O)CNC(=O)[C@H](CCC(N)=O)NC(=O)C(C)(C)NC(=O)[C@@H](N)Cc1c[nH]cn1)[C@@H](C)O)[C@@H](C)O)C(=O)N[C@@H](CO)C(=O)N[C@@H](CCCCN)C(=O)N[C@@H](Cc1ccc(O)cc1)C(=O)N[C@@H](CC(C)C)C(=O)N[C@@H](CCC(=O)O)C(=O)N[C@@H](CCC(=O)O)C(=O)N[C@@H](CCCCN)C(=O)N[C@@H](CCCNC(=N)N)C(=O)N[C@@H](C)C(=O)N[C@@H](CCCCN)C(=O)N[C@@H](CCC(=O)O)C(=O)N[C@@H](Cc1ccccc1)C(=O)N[C@H](C(=O)N[C@@H](CCC(=O)O)C(=O)N[C@@H](Cc1c[nH]c2ccccc12)C(=O)N[C@@H](CC(C)C)C(=O)N[C@@H](CCC(=O)O)C(=O)N[C@@H](C)C(=O)NCC(=O)NCC(=O)N1CCC[C@H]1C(=O)N[C@@H](CO)C(=O)N[C@@H](CO)C(=O)NCC(N)=O)[C@@H](C)CC)C(=O)O)C(=O)O [Compound 11] (HELM PEPTIDE1{H.[Aib].Q.G.T.F.T.S.D.K.S.K.Y.L.E.E.K.R.A.K.E.F.I.E.W.L.E.A.G.G.P.S.S.G.[am]}|PEPTIDE2{[CCCCCCCCCCCCCCCC(=O)[*:2]].[gGlu].[gGlu]}$PEPTIDE1,PEPTIDE2,10:R3-3:R2$$$V2.0; N-terminus assumed)
0.486			CC(C)C[C@H](NC(=O)[C@H](Cc1c[nH]c2ccccc12)NC(=O)[C@H](C)NC(=O)[C@@H](NC(=O)[C@H](Cc1ccccc1)NC(=O)[C@H](CCC(=O)O)NC(=O)[C@H](CCCCN)NC(=O)[C@H](C)NC(=O)[C@H](C)NC(=O)[C@H](CCCNC(=N)N)NC(=O)[C@H](CCC(=O)O)NC(=O)[C@H](CCC(=O)O)NC(=O)[C@H](CC(C)C)NC(=O)[C@H](Cc1ccc(O)cc1)NC(=O)[C@H](CCCCN)NC(=O)[C@H](CO)NC(=O)[C@H](CCCCNC(=O)COCCOCCNC(=O)COCCOCCNC(=O)CC[C@H](NC(=O)CCCCCCCCCCCCCCCCC(=O)O)C(=O)O)NC(=O)[C@H](CC(=O)O)NC(=O)[C@H](CO)NC(=O)[C@@H](NC(=O)[C@H](Cc1ccccc1)NC(=O)[C@@H](NC(=O)CNC(=O)[C@H](CCC(N)=O)NC(=O)C(C)(C)NC(=O)[C@@H](N)Cc1c[nH]cn1)[C@@H](C)O)[C@@H](C)O)C(C)C)C(=O)N[C@@H](CCCCN)C(=O)N[C@@H](CCC(=O)O)C(=O)NCC(=O)NCC(=O)N1CCC[C@H]1C(=O)N[C@@H](CO)C(=O)N[C@@H](CO)C(=O)NCC(N)=O [Compound 17] (H-H[Aib]QGTFTSDK([AEEA-AEEA-γGlu-C18 diacid])SKYLEERAAKEFVAWLKEGGPSSG-NH2; N-terminus assumed)
6.25			CCCCCCCCCCCCCCCC(=O)N[C@@H](CCC(=O)N[C@@H](CCC(=O)NCCCC[C@H](NC(=O)[C@H](CC(=O)O)NC(=O)[C@H](CO)NC(=O)[C@@H](NC(=O)[C@H](Cc1ccccc1)NC(=O)[C@@H](NC(=O)CNC(=O)[C@H](CCC(N)=O)NC(=O)C(C)(C)NC(=O)[C@@H](N)Cc1c[nH]cn1)[C@@H](C)O)[C@@H](C)O)C(=O)N[C@@H](CO)C(=O)N[C@@H](CCCCN)C(=O)N[C@@H](Cc1ccc(O)cc1)C(=O)N[C@@H](CC(C)C)C(=O)N[C@@H](CCC(=O)O)C(=O)N[C@@H](CO)C(=O)N[C@@H](CCC(=O)O)C(=O)N[C@@H](CCCNC(=N)N)C(=O)N[C@@H](C)C(=O)N[C@@H](CCCCN)C(=O)N[C@@H](CCC(=O)O)C(=O)N[C@@H](Cc1ccccc1)C(=O)N[C@H](C(=O)N[C@@H](CCC(=O)O)C(=O)N[C@@H](Cc1c[nH]c2ccccc12)C(=O)N[C@@H](CC(C)C)C(=O)N[C@H](C(=O)N[C@@H](CCCCN)C(=O)N[C@@H](CCC(=O)O)C(=O)NCC(=O)NCC(=O)N1CCC[C@H]1C(=O)N[C@@H](CO)C(=O)N[C@@H](CO)C(=O)NCC(N)=O)C(C)C)C(C)C)C(=O)O)C(=O)O [Compound 19] (HELM PEPTIDE1{H.[Aib].Q.G.T.F.T.S.D.K.S.K.Y.L.E.S.E.R.A.K.E.F.V.E.W.L.V.K.E.G.G.P.S.S.G.[am]}|PEPTIDE2{[CCCCCCCCCCCCCCCC(=O)[*:2]].[gGlu].[gGlu]}$PEPTIDE1,PEPTIDE2,10:R3-3:R2$$$V2.0; N-terminus assumed)
0.329			CC[C@H](C)[C@H](NC(=O)[C@H](Cc1ccccc1)NC(=O)[C@H](CCC(=O)O)NC(=O)[C@H](CCCCN)NC(=O)[C@H](C)NC(=O)[C@H](CCCNC(=N)N)NC(=O)[C@H](CCCCN)NC(=O)[C@H](CCC(=O)O)NC(=O)[C@H](CC(=O)O)NC(=O)[C@H](CC(C)C)NC(=O)[C@H](Cc1ccc(O)cc1)NC(=O)[C@H](CCCCN)NC(=O)[C@H](CO)NC(=O)[C@H](CCCCNC(=O)COCCOCCNC(=O)COCCOCCNC(=O)CC[C@H](NC(=O)CCCCCCCCCCCCCCCCC(=O)O)C(=O)O)NC(=O)[C@H](CC(=O)O)NC(=O)[C@H](CO)NC(=O)[C@@H](NC(=O)[C@H](Cc1ccccc1)NC(=O)[C@@H](NC(=O)CNC(=O)[C@H](CCC(N)=O)NC(=O)C(C)(C)NC(=O)[C@@H](N)Cc1c[nH]cn1)[C@@H](C)O)[C@@H](C)O)C(=O)N[C@@H](CCC(=O)O)C(=O)N[C@@H](Cc1c[nH]c2ccccc12)C(=O)N[C@@H](CC(C)C)C(=O)N[C@@H](CCC(=O)O)C(=O)N[C@@H](C)C(=O)NCC(=O)NCC(=O)N1CCC[C@H]1C(=O)N[C@@H](CO)C(=O)N[C@@H](CO)C(=O)NCC(N)=O [Compound 23] (H-H[Aib]QGTFTSDK([AEEA-AEEA-γGlu-C18 diacid])SKYLDEKRAKEFIEWLEAGGPSSG-NH2; N-terminus assumed)
